Measured values taken from ChEMBL document CHEMBL1128031, “The design of dipeptide helical mimetics: the synthesis and biological activity of trisubstituted indanes” (Bioorg Med Chem Lett, 1994).
pIC50: −log10 of the molar value. Peptide text beside a SMILES is read from it. * marks the point of attachment. Cbz = O=C(OCc1ccccc1)*

Legend:
Neuromedin-K receptor = target: T1, Neuromedin-K receptor (Homo sapiens, UniProt P29371); test: Inhibition of [125I][MePhe]-NKB binding to human Tachykinin receptor 3 in CHO cells; format: cell-based
T1 sequence (P29371 whole entry): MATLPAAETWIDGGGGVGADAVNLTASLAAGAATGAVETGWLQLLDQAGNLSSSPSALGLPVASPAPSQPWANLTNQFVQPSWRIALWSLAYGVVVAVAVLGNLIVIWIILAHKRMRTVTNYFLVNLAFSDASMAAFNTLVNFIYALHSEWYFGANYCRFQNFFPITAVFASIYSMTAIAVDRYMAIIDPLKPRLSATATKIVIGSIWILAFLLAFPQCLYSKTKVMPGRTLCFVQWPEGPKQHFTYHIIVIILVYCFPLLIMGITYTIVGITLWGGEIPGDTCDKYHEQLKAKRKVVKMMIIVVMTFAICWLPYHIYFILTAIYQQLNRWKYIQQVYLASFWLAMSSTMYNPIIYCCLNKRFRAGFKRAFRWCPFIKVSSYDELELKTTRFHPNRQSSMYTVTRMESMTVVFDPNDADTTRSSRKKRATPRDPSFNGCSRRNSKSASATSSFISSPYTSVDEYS

Substance-P receptor = Substance-P receptor (Homo sapiens, UniProt P25103); test: Inhibition of [125I]BH-SP binding to tachykinin NK1 receptor in human IM-9 cells; format: cell-based
Sequence of Substance-P receptor (P25103 whole entry): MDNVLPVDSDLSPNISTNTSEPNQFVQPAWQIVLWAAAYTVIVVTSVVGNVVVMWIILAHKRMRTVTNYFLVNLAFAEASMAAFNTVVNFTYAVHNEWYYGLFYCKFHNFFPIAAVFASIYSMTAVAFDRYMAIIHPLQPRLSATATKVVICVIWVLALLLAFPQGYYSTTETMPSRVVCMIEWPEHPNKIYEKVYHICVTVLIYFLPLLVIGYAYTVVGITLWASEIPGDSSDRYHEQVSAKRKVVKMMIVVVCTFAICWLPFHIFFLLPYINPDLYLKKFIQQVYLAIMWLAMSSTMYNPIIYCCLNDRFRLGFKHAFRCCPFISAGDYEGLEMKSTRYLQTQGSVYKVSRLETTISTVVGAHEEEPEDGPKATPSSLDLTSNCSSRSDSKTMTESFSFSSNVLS

pIC50 (Neuromedin-K receptor) | pIC50 (Substance-P receptor) | Compound
5.28 | – | CC(C)(C)CNC(=O)C1(Cc2ccccc2)CCc2ccc(Cc3ccccc3)cc21 (stereo unspecified)
5.52 | 5.62 | O=C(NCCc1ccccc1)C1(Cc2ccccc2)CCc2ccc(Cc3ccccc3)cc21 (stereo unspecified)
5.10 | 5.52 | COC(=O)C1(Cc2ccccc2)CCc2ccc(Cc3ccccc3)cc21 (stereo unspecified)
– | 5.03 | NC(=O)[C@H](Cc1ccccc1)NC(=O)[C@H](Cc1c[nH]c2ccccc12)NC(=O)OCc1ccccc1 (Cbz-Trp-Phe-NH2)
